Source: ChEMBL document CHEMBL1201862, “PubChem BioAssay data set” (2004)
Active and inactive are the calls of the source.

Tests used:
[1] = inhibitors of HIV Env-driven cell fusion, dose response, cherry-pick (AID 652057); assay type: functional, cell-based
[2] = ZM109 Env clade C HIV-1 fusion inhibitors, dose response, HeLa effector, CEM target cells, luciferase, cherry-pick (AID 652058); assay type: functional, cell-based
[3] = off-target signal loss in HeLa-CEM21 co-culture – HeLa F-luc CTL cells, cherry-picked, counter-screen for HIV-1 Env fusion inhibitor project, dose response (AID 652040); assay type: functional, cell-based;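 further: potency for signal decrease marking cytotoxic or nonspecific inhibition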
[4] = inhibitors of clade B AD8 Env fusion, dose response, cell-based, cherry-pick (AID 652062); assay type: functional;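 further: luciferase signal from cell-cell fusion driven by HIV-1 clade B AD8 Env; potency is for inhibitors of fusion seen as a drop in luminescence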
[5] = LGR2 antagonists, dose response, cell-based, HEK293, CRE-luciferase reporter, cherry pick, set 2 (AID 743343); assay type: functional;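 further: transfected cells were stimulated with diluted bursicon conditioned medium after compound addition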
[6] = MC4R antagonists, dose response, counter-screen for LGR2 antagonist project, cell-based, plate reader, cherry pick (AID 743444); assay type: functional;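 further: transfected HEK 293 cells stimulated with alpha-MSH peptide; potency of inhibitors of the alpha-MSH evoked signal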
[7] = THP-1 cell cytotoxicity, dose response, cytotoxicity control for Vif-APOBEC3G degradation inhibitor project, THP-1 cells (AID 1117359); assay type: functional; details: Human immunodeficiency virus 1, THP-1
Cytochrome P450 2D6 = Cytochrome P450 2D6 (Homo sapiens, UniProt P10635);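 further: CYP2D6 member of a cytochrome P450 panel assay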
Cytochrome P450 2C9 = Cytochrome P450 2C9 (Homo sapiens, UniProt P11712)
Fatty acid synthase [8] = biological target: T1, Fatty acid synthase (Homo sapiens, UniProt P49327); assay: FAS thioesterase domain inhibitors, dose response, biochemical, endpoint fluorescence intensity, uHTS hits (AID 624327); assay type: functional;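 further: fluorescence from hydrolysis of an O-methyl fluorescein acyl ester substrate by the enzyme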
Fatty acid synthase [9] = biological target: T1, Fatty acid synthase; assay: FAS thioesterase domain inhibitors, dose response, biochemical, kinetic fluorescence intensity (AID 624326); assay type: functional;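 further: rate of fluorescence rise from hydrolysis of a fluorogenic O-methyl fluorescein ester substrate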
Paired box protein Pax-8 = Paired box protein Pax-8 (Homo sapiens, UniProt Q06710); assay: inhibitors of PAX8-driven TPO luciferase reporter, dose response, RMG-I cells, cherry-pick (AID 687027); assay type: functional, cell-based;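 further: luciferase reporter driven by Pax8 target thyroperoxidase promoter measured by SteadyGlo luminescence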
[10] = cytotoxicity in OVCAR8 ovarian cancer cells, dose response, PAX8 project, cell-based, plate reader, dry powder samples (AID 743197); assay type: functional; details: OVCAR-8
[11] = P. falciparum 3D7-ScDHODH growth inhibitors, dose response, SYBR Green, dry powder samples (AID 1159570); assay type: functional, cell-based;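 further: parasite growth measured after 72 hours of compound exposure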
[12] = HepG2 cell cytotoxicity, dose response, cytotoxicity control, plate reader, dry powder samples (AID 1159569); assay type: functional, cell-based;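 further: inhibitor potency with signal falling toward the positive control level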
[13] = P. falciparum Dd2 growth inhibitors, dose response, SYBR Green, cherry-picked samples (AID 1159567); assay type: functional, cell-based
[14] = P. falciparum Dd2 growth inhibitors, dose response, SYBR Green, dry powder samples (AID 1159566); assay type: functional, cell-based;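 further: potency for growth inhibition with lower SYBR green DNA signal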
[15] = P. falciparum ATP4 D1247Y mutant growth inhibitors, dose response, NITD609-resistant line, SYBR Green, dry powder (AID 1159571); assay type: functional, cell-based;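 further: parasites synchronized at ring stage by sorbitol before testing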
Cytochrome P450 1A2 = biological target: T2, Cytochrome P450 1A2 (Homo sapiens, UniProt P05177);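 further: PubChem cytochrome P450 panel assay, CYP1A2 panel member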
T2 sequence (P05177 whole entry): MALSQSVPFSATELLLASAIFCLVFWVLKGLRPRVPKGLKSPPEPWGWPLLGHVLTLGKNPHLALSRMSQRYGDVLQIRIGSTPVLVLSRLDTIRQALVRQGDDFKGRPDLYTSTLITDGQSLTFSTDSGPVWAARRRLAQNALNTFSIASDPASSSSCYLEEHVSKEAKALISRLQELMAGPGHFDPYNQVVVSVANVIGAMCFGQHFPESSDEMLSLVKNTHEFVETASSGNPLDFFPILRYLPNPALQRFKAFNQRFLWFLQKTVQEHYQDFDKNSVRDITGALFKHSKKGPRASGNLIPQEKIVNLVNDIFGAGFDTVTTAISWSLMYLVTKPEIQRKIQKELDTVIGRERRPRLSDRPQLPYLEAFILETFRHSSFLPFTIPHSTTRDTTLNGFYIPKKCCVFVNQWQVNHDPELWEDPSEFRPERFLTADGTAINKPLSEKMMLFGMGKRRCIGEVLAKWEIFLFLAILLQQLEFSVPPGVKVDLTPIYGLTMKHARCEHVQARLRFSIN

Nonstructural protein 1 = Nonstructural protein 1 (Influenza A virus, UniProt Q194T2); assay type: functional, Influenza A virus (A/California/07/2009(H1N1))
Sequence of Nonstructural protein 1 (Q194T2 whole entry): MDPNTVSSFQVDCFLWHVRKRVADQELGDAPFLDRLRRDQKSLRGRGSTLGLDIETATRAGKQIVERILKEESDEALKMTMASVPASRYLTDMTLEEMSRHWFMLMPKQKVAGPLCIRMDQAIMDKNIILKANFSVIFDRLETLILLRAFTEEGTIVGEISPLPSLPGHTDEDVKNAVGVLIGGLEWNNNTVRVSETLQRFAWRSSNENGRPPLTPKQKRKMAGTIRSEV

Sequence of Paired box protein Pax-8 (Q06710 whole entry): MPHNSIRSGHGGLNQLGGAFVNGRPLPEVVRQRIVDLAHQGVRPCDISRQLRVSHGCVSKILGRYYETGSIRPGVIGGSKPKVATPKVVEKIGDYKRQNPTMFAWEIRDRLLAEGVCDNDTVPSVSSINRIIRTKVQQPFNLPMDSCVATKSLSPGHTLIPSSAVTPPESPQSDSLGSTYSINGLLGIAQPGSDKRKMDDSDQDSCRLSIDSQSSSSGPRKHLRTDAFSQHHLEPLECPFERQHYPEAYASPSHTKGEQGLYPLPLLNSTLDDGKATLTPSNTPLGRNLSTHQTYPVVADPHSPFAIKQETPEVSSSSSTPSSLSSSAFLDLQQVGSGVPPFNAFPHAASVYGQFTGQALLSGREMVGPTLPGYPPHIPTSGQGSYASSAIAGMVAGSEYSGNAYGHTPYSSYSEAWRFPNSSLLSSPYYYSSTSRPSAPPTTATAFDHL
T1 sequence (P49327 whole entry, the tested form may be a part): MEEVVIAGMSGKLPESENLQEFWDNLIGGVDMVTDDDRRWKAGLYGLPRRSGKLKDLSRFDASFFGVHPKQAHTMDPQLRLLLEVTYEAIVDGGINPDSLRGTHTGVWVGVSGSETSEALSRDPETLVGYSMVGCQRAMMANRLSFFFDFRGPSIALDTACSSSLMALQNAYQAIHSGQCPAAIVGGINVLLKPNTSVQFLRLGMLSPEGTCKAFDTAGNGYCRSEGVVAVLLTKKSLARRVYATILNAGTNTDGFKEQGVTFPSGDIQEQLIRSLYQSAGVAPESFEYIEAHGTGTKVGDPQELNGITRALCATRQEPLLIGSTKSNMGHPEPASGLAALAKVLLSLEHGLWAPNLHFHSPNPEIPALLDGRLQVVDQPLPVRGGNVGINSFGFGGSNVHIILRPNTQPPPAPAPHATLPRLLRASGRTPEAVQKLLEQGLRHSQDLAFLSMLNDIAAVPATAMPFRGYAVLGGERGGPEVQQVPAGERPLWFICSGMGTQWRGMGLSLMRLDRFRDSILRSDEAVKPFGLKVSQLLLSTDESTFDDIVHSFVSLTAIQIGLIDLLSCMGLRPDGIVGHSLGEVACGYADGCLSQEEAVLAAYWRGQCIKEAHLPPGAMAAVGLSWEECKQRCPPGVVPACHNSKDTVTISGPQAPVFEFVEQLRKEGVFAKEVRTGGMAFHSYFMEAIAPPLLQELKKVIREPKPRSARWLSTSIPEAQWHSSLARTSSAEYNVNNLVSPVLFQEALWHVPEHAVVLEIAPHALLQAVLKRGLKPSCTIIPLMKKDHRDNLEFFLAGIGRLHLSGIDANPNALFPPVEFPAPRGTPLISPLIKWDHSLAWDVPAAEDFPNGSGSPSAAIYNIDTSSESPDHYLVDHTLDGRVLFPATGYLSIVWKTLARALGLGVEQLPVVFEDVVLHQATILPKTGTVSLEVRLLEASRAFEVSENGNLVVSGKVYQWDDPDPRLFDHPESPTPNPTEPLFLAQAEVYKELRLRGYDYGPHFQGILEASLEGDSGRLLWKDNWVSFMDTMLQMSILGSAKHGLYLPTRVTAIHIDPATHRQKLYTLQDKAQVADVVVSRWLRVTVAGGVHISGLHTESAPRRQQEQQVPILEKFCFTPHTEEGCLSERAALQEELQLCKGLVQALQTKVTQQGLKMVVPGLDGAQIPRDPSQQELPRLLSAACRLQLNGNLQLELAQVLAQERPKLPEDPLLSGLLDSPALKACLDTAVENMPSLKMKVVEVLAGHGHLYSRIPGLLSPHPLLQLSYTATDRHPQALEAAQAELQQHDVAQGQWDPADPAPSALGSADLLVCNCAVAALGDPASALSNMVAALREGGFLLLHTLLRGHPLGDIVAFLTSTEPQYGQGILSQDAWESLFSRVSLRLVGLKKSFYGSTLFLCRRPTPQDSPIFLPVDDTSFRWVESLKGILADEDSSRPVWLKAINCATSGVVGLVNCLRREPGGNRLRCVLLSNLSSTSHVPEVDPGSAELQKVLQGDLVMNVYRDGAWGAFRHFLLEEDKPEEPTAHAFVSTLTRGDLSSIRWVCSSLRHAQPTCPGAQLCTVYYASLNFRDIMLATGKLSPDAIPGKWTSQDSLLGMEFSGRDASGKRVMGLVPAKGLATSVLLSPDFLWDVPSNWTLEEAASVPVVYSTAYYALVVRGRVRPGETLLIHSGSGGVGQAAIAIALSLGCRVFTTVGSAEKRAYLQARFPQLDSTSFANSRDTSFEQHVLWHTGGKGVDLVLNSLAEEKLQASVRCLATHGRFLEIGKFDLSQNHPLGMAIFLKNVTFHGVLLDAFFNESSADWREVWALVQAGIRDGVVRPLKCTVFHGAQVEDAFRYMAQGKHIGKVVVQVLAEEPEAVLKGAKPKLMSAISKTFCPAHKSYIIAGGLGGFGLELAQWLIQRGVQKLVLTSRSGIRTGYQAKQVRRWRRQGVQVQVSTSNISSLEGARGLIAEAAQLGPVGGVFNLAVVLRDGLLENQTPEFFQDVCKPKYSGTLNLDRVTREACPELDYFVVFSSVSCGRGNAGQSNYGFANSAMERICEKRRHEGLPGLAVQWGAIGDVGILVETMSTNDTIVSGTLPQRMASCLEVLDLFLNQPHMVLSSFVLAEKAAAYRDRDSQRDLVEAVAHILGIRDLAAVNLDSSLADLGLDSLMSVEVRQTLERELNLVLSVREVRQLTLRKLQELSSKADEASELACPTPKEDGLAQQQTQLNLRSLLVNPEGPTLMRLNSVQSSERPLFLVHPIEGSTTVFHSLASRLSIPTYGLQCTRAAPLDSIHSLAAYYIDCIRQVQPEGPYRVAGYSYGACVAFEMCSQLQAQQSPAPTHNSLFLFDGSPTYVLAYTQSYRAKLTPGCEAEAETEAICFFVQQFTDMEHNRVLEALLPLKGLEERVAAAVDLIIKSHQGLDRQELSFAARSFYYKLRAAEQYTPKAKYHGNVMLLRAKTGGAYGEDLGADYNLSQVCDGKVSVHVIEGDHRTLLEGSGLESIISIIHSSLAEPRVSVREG
Sequence of Cytochrome P450 2C9 (P11712 whole entry, the tested form may be a part): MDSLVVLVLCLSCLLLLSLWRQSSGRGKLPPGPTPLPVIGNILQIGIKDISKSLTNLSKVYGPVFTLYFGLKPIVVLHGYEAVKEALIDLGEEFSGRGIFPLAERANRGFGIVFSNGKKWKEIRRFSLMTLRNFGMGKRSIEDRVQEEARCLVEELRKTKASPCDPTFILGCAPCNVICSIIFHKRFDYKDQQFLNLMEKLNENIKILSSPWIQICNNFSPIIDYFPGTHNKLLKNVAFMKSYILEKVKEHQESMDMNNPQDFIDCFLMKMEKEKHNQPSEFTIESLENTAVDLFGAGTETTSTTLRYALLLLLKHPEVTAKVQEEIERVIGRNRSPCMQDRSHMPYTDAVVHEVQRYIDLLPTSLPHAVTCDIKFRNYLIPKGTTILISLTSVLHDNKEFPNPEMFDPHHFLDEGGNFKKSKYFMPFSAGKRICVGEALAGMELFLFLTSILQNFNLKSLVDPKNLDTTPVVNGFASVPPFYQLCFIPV
Sequence of Cytochrome P450 2D6 (P10635 whole entry): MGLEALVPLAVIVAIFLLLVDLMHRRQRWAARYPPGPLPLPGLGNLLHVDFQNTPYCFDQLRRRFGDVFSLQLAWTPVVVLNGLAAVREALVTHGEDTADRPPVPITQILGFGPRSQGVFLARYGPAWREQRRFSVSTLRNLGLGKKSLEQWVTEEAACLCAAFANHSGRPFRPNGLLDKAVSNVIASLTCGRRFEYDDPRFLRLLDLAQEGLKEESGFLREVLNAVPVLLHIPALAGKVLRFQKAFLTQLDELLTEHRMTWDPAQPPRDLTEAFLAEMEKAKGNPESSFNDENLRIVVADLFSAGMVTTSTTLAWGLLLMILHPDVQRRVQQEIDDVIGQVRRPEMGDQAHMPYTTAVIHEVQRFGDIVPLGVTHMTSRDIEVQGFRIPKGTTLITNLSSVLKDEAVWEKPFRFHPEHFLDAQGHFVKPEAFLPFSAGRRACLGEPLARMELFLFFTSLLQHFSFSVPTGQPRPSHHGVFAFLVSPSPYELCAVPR

CCCCN1CC(=O)N2[C@H]3c4ccccc4OC[C@@H]3[C@H](c3ccccc3)[C@]2(C)C1=O
AC50 [1]: 3.64 µM (active)
AC50 [2]: 0.448 µM (active)
AC50 [3]: 4.48 µM (active)
AC50 [4]: 29.7 µM (active)

O=C(O)c1ccc(-c2noc(-c3ccccc3Cl)n2)cc1
AC50 [5]: 28.3 µM (active)
AC50 [6]: 32.9 µM (active)

CCC(C)NC(=O)CSc1ccc(S(=O)(=O)N2CCN(Cc3ccccc3)CC2)cn1 (stereo not given)
CC50 [7]: > 40 µM (active)

COc1cccc(C(=O)Nc2cc(C(F)(F)F)ccc2Cl)c1
AC50 (Cytochrome P450 2D6): 28.2 µM (inconclusive)
AC50 (Cytochrome P450 2C9): inconclusive

COc1ccc(-c2cc([N+](=O)[O-])ccc2OCC(=O)N(C)CC(=O)Nc2ccc(C)cc2)cc1
IC50 (Fatty acid synthase [8]): 7.56 µM (active)
IC50 (Fatty acid synthase [9]): 7.78 µM (active)

CC[C@@]1(C(=O)OC)N[C@H](CN(C)C(=O)Nc2ccc(F)cc2)[C@@H]2C(=O)N(Cc3ccccc3)C(=O)[C@@H]21
AC50 [1]: 0.401 µM (active)
AC50 [2]: 0.378 µM (active)
AC50 [3]: 0.744 µM (active)
AC50 [4]: 0.614 µM (active)

C[C@H]1CCCCO[C@H](CN(C)C(=O)Nc2ccc(F)cc2)[C@@H](C)CN([C@@H](C)CO)C(=O)c2cc(NC(=O)Nc3ccc(C(F)(F)F)cc3)ccc2O1
AC50 (Paired box protein Pax-8): 8.09 µM (active)
AC50 [10]: 58.3 µM (active)

C[C@H]1CN([C@@H](C)CO)C(=O)c2c(c3ccccc3n2C)-c2ccccc2CO[C@H]1CN(C)S(=O)(=O)c1ccc(C(F)(F)F)cc1
AC50 (Paired box protein Pax-8): 3.69 µM (active)
AC50 [10]: 50.8 µM (active)
AC50 [11]: 0.251 µM (active)
AC50 [12]: 32.1 µM (active)
AC50 [13]: < 0.3 µM (active)
AC50 [14]: 0.23 µM (active)
AC50 [15]: 0.216 µM (active)

CC(C)CC#Cc1ccc2c(c1)O[C@H](CN(C)Cc1ccc(F)cc1)[C@H](C)CN([C@H](C)CO)S2(=O)=O
AC50 (Paired box protein Pax-8): 23.1 µM (active)
AC50 [10]: 61.2 µM (active)

Nc1nnc(CC(=O)N/N=C/c2cccc([N+](=O)[O-])c2)s1
AC50 (Cytochrome P450 1A2): 31.6 µM (inconclusive)
AC50 (Cytochrome P450 2C9): inconclusive

Cc1cc(C(=O)N/N=C/c2cc([N+](=O)[O-])ccc2O)c2ccccc2n1
IC50 (Nonstructural protein 1): 5.29 µM (active)
IC50 (Fatty acid synthase [8]): 3.18 µM (active)
IC50 (Fatty acid synthase [9]): 2.75 µM (active)

CCO/C(O)=C/c1nc2ccccc2sc1=O
AC50 [1]: 5.7 µM (active)
AC50 [2]: 5.06 µM (active)
AC50 [3]: 5.57 µM (active)
AC50 [4]: 3 µM (active)
